Source: patent US20100068252A1, “METHOD FOR PREPARING POLYMERIC MATRICES BY RADIATION IN THE PRESENCE OF SENSITIVE PHARMACEUTICAL COMPOUNDS” (DSM IP ASSETS B.V., priority 2006, published 2010)

Experiment: Phase (ii) testing: UV irradiation of drug with photoinitiator (radical generation), drug recovery by HPLC
Type: physicochemical
Settings: sensitive = degrades more than 5% with radical generation at 12 J/cm^2
Excerpt: As used herein, the term sensitive pharmaceutical compounds is to be interpreted as compounds that degrade for more than 5% in an environment with radical generation at 12 J/cm^2 irradiation. More in particular, the pharmaceutical can be sensitive during polymerisation that can be initiated with UV or visible light (200-700 nm) or with electron beam or gamma radiation, and without or up to 10% radical generating species (initiator) present. If an initiator is present, it is preferably about 1-10 wt % of a photoinitiator. In addition to photoinitiators, the system may comprise also a thermal initiator (for example peroxide and/or redox initiators). Preferably a radiation sensitive (photo)initiator is used, for example a Norrish Type I or Type II initiator. It is possible to work in the absence of these radical generating species where electron beam or gamma radiation is used or in the case where unsaturated compounds (one compound whose double bond is electron rich and another compound whose double bond is electron poor) react with each other via a donor-acceptor complex to form a polymer.
Potential degradation can be measured by dissolving 100 ppm (0.1 g/l) pharmaceutical compound in a suitable solvent in a quartz, glass or HPLC vessel. One series of vessels is used as such. In a second series of vessels, the one or more initiators, preferably those used in the polymerization mixture, are added in the same amount as the pharmaceutical compound. Next, the vessels are subjected to irradiation at 2 and 12 J/cm^2. As an example, UV radiation can be performed with a lab UV source Bluepoint 2, equipped with a D-bulb D65 and directed onto the sample by a UV light guide. The output from the guide is 200 mW/cm^2 (200 mJ/cm^2 per second) as measured with a Solascope 1 UV spectrometer. A dose of 2 and 12 J/cm^2 was achieved by irradiating 10 and 60 seconds, respectively. The choice of irradiation system could be governed by the applications or processing considerations that typically influence hardware use in a laboratory, hospital or manufacturing environment. […]
The recovery could be analysed by HPLC. […] UV spectra of the drugs before and after UV irradiation (at both 2 and 12 J/cm^2) had identical shapes, meaning that the HPLC method could be used to quantitatively measure changes in drug concentrations. Any degradation would be calculated as: minus the percentage of recovered API.
UV irradiation of drug-containing solutions (see below) was performed with a lab UV source Dr. Hoenle Bluepoint 2, equipped with a D-bulb, directed onto the (open) HPLC vials (2 ml) by a UV light guide (200 mW/cm^2; 200 mJ/cm^2 per second as measured with Solascope 1 UV emission spectrometer). […]

Radical sensitivity in the current testing method, radical sensitive:
CCCCc1oc2ccccc2c1C(=O)c1cc(I)c(OCCN(CC)CC)c(I)c1 [Amiodarone ®, Amiodarone]
O=C(N[C@H](CO)[C@H](O)c1ccc([N+](=O)[O-])cc1)C(Cl)Cl [Chloroamphenicol]
COc1cc2nc(N3CCN(C(=O)c4ccco4)CC3)nc(N)c2cc1OC [Prazosin ®, Prazosin]
COc1cc2nc(N3CCN(C(=O)C4CCCO4)CC3)nc(N)c2cc1OC (stereo not shown) [Terazosin ®, Terazosin]
